In patent US7960551B2, “Compound” (Glaxo Group Limited, priority 2007, dated 2011):
Counter-ions that a name gives are not always drawn.

Experiment: Dynamic Vapour Sorption (DVS) assessment
Format: physicochemical
Method: A Dynamic Vapour Sorption (DVS) profile of Form 1 was obtained using an SMS DVS-1 with water as a reagent at 25° C. 20-30 mg of sample were placed in a glass bulb and equilibrated at 30% RH. The % RH was increased to 90% in 10% steps.

In the case of `COc1cc(NC(=O)CCN2CCC(OC(=O)Nc3ccccc3-c3ccccc3)CC2)c(Cl)cc1CNC[C@H](O)c1ccc(O)c2[nH]c(=O)ccc12` [Form 1, Biphenyl-2-ylcarbamic Acid 1-[2-(2-Chloro-4-{[(R)-2-hydroxy-2-(8-hydroxy-2-oxo-1,2-dihydroquinolin-5-yl)ethylamino]methyl}-5-methoxyphenylcarbamoyl)-ethyl]piperidin-4-yl Ester Succinic Acid Salt (Form 1)], the deliquescence (exposed to atmospheric moisture / DVS profile) is reported as “not to be deliquescent”, the “weight gain (hygroscopicity)” value (humidity range of 30% relative humidity to 90% relative humidity, water, 25° C.) is reported as “less than 2.0%” and the sorption/desorption profile (two sorption/desorption cycles, 0-90% RH in 10% steps, 25° C.) is reported as “reversible”.
